27 compounds from patent US5942641A, “Fluorenone derivatives, process for preparing the same and central or peripheral nerve degeneration repair and protective agent” (Otsuka Pharmaceutical Co., Ltd., priority 1993, dated 1999) can be followed below.

The first assay relates to mouse dorsal root ganglion cells. The assay can be described thus: Pharmacological Test 2: neurite outgrowth in primary culture of mouse dorsal root ganglion cells. Also noted: key: +: positive; ±: false positive; -: negative. The note with it: Dose 3 × 10^-7 (mole); 7 days culture. Type of assay: cell-based, mouse (C57BL/6). How it is done: (The measurement of neurite outgrowth in primary culture of mouse dorsal root ganglion cells)
Preparation of cells was conducted according to a method of Horie et al. [H. Horie., FEBS, 296, 23 (1990)]. That is, C57BL/6 male mice aged 10 to 15 weeks were used. They were bleeded to death under ether anesthetization and the backbone from cervical vertebra to sacral vertebra was removed. The capsule of dorsal root ganglion of which ventral root and dorsal root had been cut was stripped in a Ham F12 medium (Flow laboratories) and then ganglia were treated with 0.25% collagenase (Worthington Biochemical Corporation) at 37° C. for 90 minutes. The medium was replaced by a Hank's physiological buffer solution containing no calcium and magnesium and cells were treated with 0.25% trypsin (Flow Laboratories) at room temperature for 20 minutes. A trypsin inhibitor (Sigma, 100 μg/ml) was added to terminate the enzyme reaction and trituration was conducted 20 times using a tapered Pasteur pipette. The medium was replaced again by the Ham F12 medium and cells were put through a nylon mesh (150 μm) to remove a cell mass which had not been separated. Cells were suspended in the Ham F12 medium containing a N1 additive [Bottenstein, J. E., Exp. Cell. Res., 125, 183 (1980)] (kanamycin of 60 μg/ml added).
A poly-1-lysine-coating cell disc as a culture medium which had been subjected to 10 μg/ml laminin (Koken Cell Gen) coating treatment at 37° C. for 3 hours was placed on a 24 well dish and nerve cells (5000 to 10000 cells/dish) were seeded. The test compound (concentration: 0.01 mol/l) was dissolved in dimethyl sulfoxide and diluted with a phosphate buffer solution to adjust to a final concentration, and then added to a culture solution. Cells were cultured in 5% CO2 -95% air phase at 37° C. for 7 days.
For the measurement of neurite outgrowth, the cell disc was washed with a phosphate buffer solution 7 days after initiation of the culture and immobilized with 4% paraformaldehyde at 4° C. for 24 hours, and then immune staining was conducted with Vecstatin ABC kit (Vector) using a neurofilament antibody (200 kD, manufactured by Boehringer Mannheim GmbH). The periphery of the cell disc was restrictively observed under microscopy, and the amount of neurofilament (whole length per well) was evaluated by comparing with the control well according to the following criteria: positive (+), false positive (±) and negative (-).
Turning to `Cc1cc2c(c(C)c1O)C(=O)c1ccc(C)c(O)c1-2` [Example 118, 1,3,6-trimethyl-2,5-dihydroxyfluorenone], the Neurite outgrowth action result was “+”.

As to `Cc1cc2c(c(C)c1O)C(=O)c1ccc(CSc3ccccc3)c(O)c1-2` [Example 136], the Neurite outgrowth action result is recorded as “+”.

The same assay, now with this note: Dose 3 × 10^-8 (mole); 7 days culture.
Turning to `COc1ccc(SCc2ccc3c(c2O)-c2cc(C)c(O)c(C)c2C3=O)cc1` [Example 141], the Neurite outgrowth action result is reported as “+”.

In the case of `Cc1cc2c(c(C)c1O)C(=O)c1ccc(CSC3CCCCC3)c(O)c1-2` [Example 142], the Neurite outgrowth action result is recorded as “+”.

As for `CCCc1cc2c(c(CCC)c1O)C(=O)c1c(CCC)cc(CCC)c(O)c1-2` [Example 32], the Neurite outgrowth action entry is on record as “+”.

For `CCCc1cc2c(c(CCC)c1OC(C)=O)C(=O)c1c(CCC)cc(CCC)c(OC(C)=O)c1-2` [Example 134], the Neurite outgrowth action result is reported as “+”.

The same assay, now with this note: Dose 10^-6 (mole); 7 days culture.
For `COc1cccc2c1-c1cc(C(C)C)c(O)cc1C2=O` [Example 36], the Neurite outgrowth action result was “+”.

Consider `CSc1ccc(O)c2c1C(=O)c1ccccc1-2` [Example 63], for which the Neurite outgrowth action entry is listed as “+”.

On to `O=C1c2ccccc2-c2cc(O)c(O)cc21` [Example 20, 2,3-dihydroxyfluorenone], for which the Neurite outgrowth action result is on record as “+”.

Consider `C=CCc1cc(SC)c2c(c1O)-c1ccccc1C2=O` [Example 64], for which the Neurite outgrowth action result is “+”.

Staying with this assay, now noted: Dose 10^-7 (mole); 7 days culture.
For `Cc1cc2c(c(C)c1O)C(=O)c1ccc(CNc3ncccn3)c(O)c1-2` [Example 123], the Neurite outgrowth action entry is listed as “+”.

In the case of `C=CCc1cc(Cl)c2c(c1O)-c1cc(Cl)c(O)c(CC=C)c1C2=O` [Example 33], the Neurite outgrowth action result was “+”.

For `C=CCc1cc2c(cc1O)-c1cc(CC=C)c(O)cc1C2=O` [Example 44], the Neurite outgrowth action entry was “+”.

In the case of `C=CCc1cc2c(cc1O)C(=O)c1c(CC=C)ccc(O)c1-2` [Example 30], the Neurite outgrowth action entry was “+”.

In the case of `C=CCc1c(O)ccc2c1C(=O)c1ccc(O)c(CC=C)c1-2` [Example 41], the Neurite outgrowth action entry is recorded as “+”.

As for `CCCc1cc2c(c(CC(C)OCCOCCO)c1O)C(=O)c1c(CCC)cc(CCC)c(O)c1-2` (stereo not drawn) [Example 143], the Neurite outgrowth action entry is recorded as “+”.

Regarding `C=CCc1cc2c(c(CC=C)c1O)C(=O)c1c-2cc(CC=C)c(O)c1CC=C` [Example 50], the Neurite outgrowth action entry was “+”.

For the compound `C=CCc1cc(Cl)c(O)c2c1C(=O)c1c-2cc(Cl)c(O)c1CC=C` [Example 34], the Neurite outgrowth action result is listed as “+”.

Regarding `CCCc1cc2c(c(Cl)c1O)C(=O)c1c-2cc(Cl)c(O)c1CCC` [Example 54, 3,8-dichloro-1,6-di-n-propyl-2,7-dihydroxyfluorenone], the Neurite outgrowth action result was “+”.

Regarding `CCCc1c(O)c(O)c(CCC)c2c1C(=O)c1ccccc1-2` [Example 22, 1,4-di-n-propyl-2,3-dihydroxyfluorenone], the Neurite outgrowth action result is reported as “+”.

As for `C=CCc1cc2c(cc1OC(C)=O)C(=O)c1c-2ccc(OC(C)=O)c1CC=C` [Example 106, 1,6-diallyl-2,7-diacetoxyfluorenone], the Neurite outgrowth action result is reported as “+”.

For `CCCc1ccc2c(c1O)-c1cc(CN3CCC[C@H]3C(=O)OC)c(O)c(CCC)c1C2=O` [Example 132], the Neurite outgrowth action entry is recorded as “+”.

`CCCc1ccc2c(c1O)-c1cc(CNc3ncccn3)c(O)c(CCC)c1C2=O` [Example 127]: the Neurite outgrowth action entry is listed as “+”.

With `CCCc1cc2c(c(CCC)c1O)C(=O)c1c-2cc(CCC)c(O)c1CCC` [Example 53], the Neurite outgrowth action result was “+”.

With `Cc1cc2c(c(C)c1O)C(=O)c1ccc(CC#N)c(O)c1-2` [Example 144], the Neurite outgrowth action result is recorded as “+”.

On to `C=CCc1cc2c(cc1O)C(=O)c1ccc(CC=C)c(O)c1-2` [Example 29], for which the Neurite outgrowth action result was “+”.

`CCCc1ccc2c(c1O)-c1cc(CNC(CC(C)C)C(=O)OC)c(O)c(CCC)c1C2=O` (stereo not drawn) [Example 131]: the Neurite outgrowth action entry is reported as “+”.
